Test results taken from patent US6448283B1, “Methods for preventing/treating damage to sensory hair cells and cochlear neurons” (Cephalon, Inc., priority 1998, dated 2002).

Assays:
[1] = test system: gentamicin-treated guinea pigs; test: ABR threshold shifts after gentamicin treatment; format: in vivo, guinea pig; settings: gentamicin 120 mg/kg s.c. 14 days plus Formula II 1 mg/kg daily; day 30; n=8; P<0.01
Protocol: Adult Dunkin-Hartley female guinea pigs (weight 300-400 g) were used. They were given free access to water and a regular guinea pig diet. The animals were given 1 week of adjustment before baseline ABR recordings and gentamicin (GM) treatment.
Two experimental groups were formed. Group 1 guinea pigs served as control and were treated with gentamicin only. The animals were injected s.c. with gentamicin at 120 mg/kg body weight, once daily for 14 days. Three guinea pigs (yielding a total of 6 inner ears) were included in this group. The animals were decapitated 30 days after the start of the injections.
Group 2 guinea pigs were treated with gentamicin plus Formula II. The animals were injected s.c. with GM at 120 mg/kg body weight, plus Formula II at 1 mg/kg, once daily for 14 days. Formula II treatment started 1 day before GM injections. Formula II treatment was continued for 28 or 29 days. Four guinea pigs (8 inner ears) were included in this group. The animals were decapitated 30 days after the start of GM injections.
ABRs were determined 1 day before GM injections (baseline values) and at day 30 after the start of the GM injections. […] Thresholds were determined at frequencies 2, 4, 8, 16 and 32 kHz from a set of responses at varying intensities with 5 dB intervals and 1000 sweeps near the threshold. ABRs were measured with System II hardware and BioSig software. […]

[2] = test system: JNK signaling cascade (JNK and c-Jun phosphorylation); test: Phospho-JNK and phospho-c-Jun immunostaining in neomycin-exposed cochlear explants; format: cell-based, rat; settings: 500 nM Formula II coincubated with neomycin; n=5 explants
Protocol: Six, 12 and 24 hr after adding 100 μM neomycin to the medium, cochlear cultures were fixed with 4% paraformaldehyde in PBS for 30 min. The specimens were prepared for 5 um-thick paraffin sections. They were stained with a TUNEL-kit, mounted in Vectashield containing DAPI nuclear counterstain (Vector, Burlingame, Calif.), and viewed under an Olympus Provis microscope (Tokyo, Japan) using epifluorescence. In addition to TUNEL-staining, DNA fragmentation was verified under UV illumination using DAPI counterstain.
Adjacent sections were immunostained with a polyclonal phospho-c-Jun antibody (Ser73, 1:500; New England Biolabs, Beverly, Mass.) and a polyclonal phospho-JNK antibody (Thr183/Tyr185, 1:250 dilution; New England Biolabs). The phospho-JNK antibody detects the dually phosphorylated isoforms of JNK 1, 2 and 3. The specificity of the phospho-specific antibodies was verified by Western blotting using sorbitol-treated PC 12 cells. Phospho-JNK antibody recognized the phosphorylated p54/p46 JNK and phospho-c-Jun antibody the phosphorylated p46 c-Jun in sorbitol-treated, but not in untreated PC 12 cells. […] Calbindin immunoreaction was detected using the ABC method and diaminobenzidine without tyramide signal amplification, and the sections were lightly counterstained with 1% toluidine blue. […]

[3] = test system: hair cells of the organ of Corti; test: TUNEL staining of apoptotic hair cells in noise-exposed cochleas; format: in vivo, guinea pig; settings: first 6 days after noise exposure
Protocol: (§1) Adult Dunkin-Hartley female guinea pigs (weight 300-500 g) were exposed, 4 animals at a time, to octave band noise, with a center frequency of 4.0 kHz, 120 dB SPL for 6 hr as described in Example 1. Fragmented hair cell nuclei were assessed from noise-exposed cochleas immediately and 1, 2, 4, 6, 8 and 14 days after noise exposure. Noise-exposed and nonexposed guinea pigs were decapitated under deep anesthesia and inner ears were perilymphatically perfused with 4% paraformaldehyde in PBS, and processed for […] paraffin-embedded sections (Ylikoski et al., Hear Res 65:69-78, 1993; Ylikoski et al., Hear Res 124:17-26, 1998). TUNEL-staining was performed as described below. DNA fragmentation was also verified by DAPI nuclear counterstain (see below). Further, trauma-induced nuclear fragmentation was verified by morphological analysis of contralateral cochleas that were perilymphatically fixed with 2.5% glutaraldehyde in 0.1M phosphate buffer, pH 7.4, postfixed with 1% osmium tetroxide, embedded in epoxy resin, and prepared for surface preparations (see below). Selected cochlear segments were then cut in transverse and horizontal planes to semi-thin (1.0 mm) sections that were stained with 1% toluidine blue. Analysis was done under an Olympus Provis microscope equipped with Nomarski optics. […]

motorneurons = settings: by inhibiting the JNK signaling pathway; Maroney et al., 1998; cited from earlier work
[4] = test system: noise-exposed guinea pigs; test: ABR threshold shifts after noise exposure (Example 2); format: in vivo, guinea pig; settings: day 6 postexposure; n=11; P<0.05 at 4 and 8 kHz, P<0.01 at 16 kHz
Protocol: as §1, with “below).” for “below). Selected cochlear segments were then cut in transverse and horizontal planes to semi-thin (1.0 mm) sections that were stained with 1% toluidine blue. Analysis was done under an Olympus Provis microscope equipped with Nomarski optics.”
Auditory brainstem responses (ABRs) were measured 2 days before noise exposure, and 2, 6 and 14 days after exposure under anesthesia (xylazine 10 mg/kg and ketamine 40 mg/kg). […] Hearing threshold was determined from a set of responses at varying intensities. […]

For CCSCc1ccc2c(c1)c1c3c(c4c5cc(CSCC)ccc5n5c4c1n2C1C[C@](O)(C(=O)OC)[C@]5(C)O1)CNC3=O [Formula II], the “ABR threshold shift versus control cochleas (GM only)” value [1] was “less threshold shift at all frequencies tested”, the “induction of JNK and c-Jun phosphorylation in hair cells” value [2] was “prevented” and the “amount of apoptotic hair cell loss versus control cochleas” value [3] was “less”. The “death of motorneurons in vitro” value (motorneurons) was “prevent death of motorneurons in vitro” and the “ABR threshold shifts versus noise-exposed control group” value [4] was “significantly less”.
